According to the supplement of paper PMC10307832:

Legend:
Test in all cases: relative viability (nuclei count vs DMSO), 5 days (fraction); higher = more cells survive
Bemcentinib + Crizotinib = compound: Nc1nc(Nc2ccc3c(c2)CC[C@@H](N2CCCC2)CC3)nn1-c1cc2c(nn1)-c1ccccc1CCC2 [Bemcentinib] + C[C@@H](Oc1cc(-c2cnn(C3CCNCC3)c2)cnc1N)c1c(Cl)ccc(F)c1Cl [Crizotinib] (partner 1 µM)
Outline: (§1)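 Five library-drug doses in √10 steps were combined with a fixed anchor-drug dose, or a single drug was given alone, by pin tool to lung cancer cell lines in 1536-well plates the day after seeding. Nuclei were stained and counted after 5 days. Relative viability is the nuclei count in treated wells over that in vehicle wells, taken as the median of duplicate plates.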

Bemcentinib + Lapatinib = compound: Nc1nc(Nc2ccc3c(c2)CC[C@@H](N2CCCC2)CC3)nn1-c1cc2c(nn1)-c1ccccc1CCC2 [Bemcentinib] + CS(=O)(=O)CCNCc1ccc(-c2ccc3ncnc(Nc4ccc(OCc5cccc(F)c5)c(Cl)c4)c3c2)o1 [Lapatinib] (partner 2 µM)
Outline: as §1

Axitinib + Bortezomib = compound: CNC(=O)c1ccccc1Sc1ccc2c(/C=C/c3ccccn3)n[nH]c2c1 [Axitinib] + CC(C)C[C@H](NC(=O)[C@H](Cc1ccccc1)NC(=O)c1cnccn1)B(O)O [Bortezomib] (partner 0.002 µM)
Outline: as §1

Bemcentinib + Foretinib = compound: Nc1nc(Nc2ccc3c(c2)CC[C@@H](N2CCCC2)CC3)nn1-c1cc2c(nn1)-c1ccccc1CCC2 [Bemcentinib] + COc1cc2c(Oc3ccc(NC(=O)C4(C(=O)Nc5ccc(F)cc5)CC4)cc3F)ccnc2cc1OCCCN1CCOCC1 [Foretinib] (partner 0.25 µM)
Outline: as §1

Cell Line	relative viability (Bemcentinib + Crizotinib; first compound 0.04 µM)	relative viability (Bemcentinib + Crizotinib; first compound 0.1265 µM)	relative viability (Bemcentinib + Crizotinib; first compound 0.4 µM)	relative viability (Bemcentinib + Crizotinib; first compound 1.265 µM)	relative viability (Bemcentinib + Crizotinib; first compound 4 µM)	relative viability (Bemcentinib + Lapatinib; first compound 0.04 µM)	relative viability (Bemcentinib + Lapatinib; first compound 0.1265 µM)	relative viability (Bemcentinib + Lapatinib; first compound 0.4 µM)	relative viability (Bemcentinib + Lapatinib; first compound 1.265 µM)	relative viability (Bemcentinib + Lapatinib; first compound 4 µM)	relative viability (Axitinib + Bortezomib; first compound 0.005 µM)	relative viability (Axitinib + Bortezomib; first compound 0.01581 µM)	relative viability (Axitinib + Bortezomib; first compound 0.05 µM)	relative viability (Axitinib + Bortezomib; first compound 0.1581 µM)	relative viability (Axitinib + Bortezomib; first compound 0.5 µM)	relative viability (Bemcentinib + Foretinib; first compound 0.04 µM)	relative viability (Bemcentinib + Foretinib; first compound 0.1265 µM)	relative viability (Bemcentinib + Foretinib; first compound 0.4 µM)	relative viability (Bemcentinib + Foretinib; first compound 1.265 µM)	relative viability (Bemcentinib + Foretinib; first compound 4 µM)
HCC-366	0.524	0.902	0.583	0.629	0.383	0.994	1.16	1.51	1.06	1.03	0.977	0.994	1.11	1	1.13	0.888	0.952	0.946	0.914	0.941
NCI-H1299	0.963	0.967	1.02	0.937	0.942	0.991	0.995	0.962	0.938	0.978	1.05	0.989	1.07	0.976	1.06	1.09	1.13	1.13	1.13	1.09
201T	1.05	1.03	0.983	1.05	1.07	1	1.02	1.02	1.03	1.06	1.14	1.08	1.06	1.07	1.11	1.07	1.33	1.24	1.12	1.11
IA-LM	0.777	0.654	0.947	0.752	0.842	0.661	0.814	1.13	0.832	0.775	1.17	0.775	0.899	0.846	0.728	1.08	1.25	0.985	1.08	1.09
NCI-H1734	0.686	0.691	0.669	0.667	0.698	1.11	1.08	1.12	1.03	1.04	0.935	0.974	0.879	1.01	1.06	0.854	0.916	0.818	0.838	0.952
NCI-H1993	0.913	0.966	0.876	1.03	1.1	0.695	0.757	0.847	0.8	0.885	1.21	1.3	1.14	1.18	0.913	0.82	0.76	0.833	0.764	0.829
NCI-H2085	0.836	0.802	0.753	0.803	0.919	0.625	0.805	0.756	0.74	0.721	1.15	0.966	1.06	1.04	1.05	1.08	1.11	0.915	1.01	0.889
EBC-1	0.185	0.214	0.179	0.236	0.193	0.203	0.189	0.302	0.204	0.221	0.631	0.657	0.521	0.565	0.629	0.0932	0.0983	0.108	0.0894	0.103
COR-L23	0.65	0.787	0.729	0.784	0.56	1.18	0.997	1.14	1.05	1.02	1.05	1.04	0.943	0.959	1.2	0.949	1.23	0.969	1.08	0.999
EPLC-272H	–	0.96	1.05	0.86	1.01	–	0.958	1.01	0.962	1.02	0.986	0.804	0.857	0.994	0.892	0.639	0.899	0.712	0.839	0.988
NCI-H2009	1.01	1.08	1.11	0.951	1.05	0.93	1.09	0.956	0.954	0.957	1.1	1.11	1.04	1.04	1.16	1.29	1.26	1.25	1.24	1.24
NCI-H460	0.976	0.994	0.937	1.04	0.964	0.931	1.46	1.3	1.14	1.12	1.09	1.07	0.975	0.96	1.37	1.01	1.22	1.1	1.07	1
NCI-H322M	1.02	0.971	0.944	1.05	1.09	0.576	0.635	0.574	0.645	0.611	1.34	1.07	1.12	1.2	1.12	0.939	1.01	0.919	1.11	0.97
HCC-827	0.971	0.867	0.914	1	0.939	0.179	0.206	0.216	0.226	0.194	1.11	1.06	1.04	1.02	1.15	1.13	1.05	1.08	1.09	1.08
HOP-62	1.01	1.08	–	0.734	1.03	1.17	0.977	–	1.05	0.959	1.02	0.776	0.668	0.891	1.21	1.22	1.14	1.01	1.06	1.21
